Assay results as given in US20070129568A1, “Ionic liquids” (nGimat, Co., priority 2005, published 2007).
Read-outs that look alike come from different tables or passages of the source.

Assay: Room temperature evaporation rate: rate of weight loss in a stream of 25° C. nitrogen relative to n-butyl acetate
Format: physicochemical
Experimental: Most compounds released by manufacturing processes affect the environment in some manner. […] The room temperature evaporation rates of some of the ILs described in the present invention were compared to several well known compounds by measuring the rate of weight loss in a stream of 25° C. nitrogen relative to the rate of weight loss of n-butyl acetate under the same conditions.

[1] = rate of weight loss in a stream of 25° C. nitrogen, relative to n-butyl acetate under the same conditions

Compound	Evaporation Rate (n-Butyl Acetate = 1) [1]	Evaporation Rate (n-Butyl Acetate = 1)
CCCCC(CC)C(=O)O (stereo not shown) [H2eh, 2-ethylhexanoic acid]	0.003	–
CC(C)O [IPA]	2.5	–
CCCCC(CC)C(=O)[O-].CCCCC(CC)C(=O)[O-].[Zn+2] (stereo not shown) [Zn(2eh)2, zinc (II) 2-ethylhexanoate]	–	<0.001
CC(C)=O [acetone]	14.4	–
OCCO [ethylene glycol]	–	<0.01
CCCCCC [hexane]	–	8.9
CCC(C)=O [methyl ethyl ketone]	5.7	–
CCCCO [n-Butanol]	0.43	–
Cc1ccccc1 [toluene]	1.9	–
xylene	0.8	–
